The record followed here is patent publication US12358886B2, “Heterocyclic compounds for use in the treatment of cancer” (Artios Pharma Limited, priority 2019, dated 2025).

One may read the IC50 as the concentration at which inhibition is half-maximal.

One test deals with Polθ protein (amino acids 2-2590) (Homo sapiens, UniProt O75417). Briefly: Polθ full length enzyme potency assay (PicoGreen). The conditions noted are these: Polθ IC50 (nM), full length N-His, C-term FLAG tagged Polθ, PicoGreen fluorescence, 12 point concentration response.
Sequence of Polθ protein (amino acids 2-2590) (O75417 2-2590): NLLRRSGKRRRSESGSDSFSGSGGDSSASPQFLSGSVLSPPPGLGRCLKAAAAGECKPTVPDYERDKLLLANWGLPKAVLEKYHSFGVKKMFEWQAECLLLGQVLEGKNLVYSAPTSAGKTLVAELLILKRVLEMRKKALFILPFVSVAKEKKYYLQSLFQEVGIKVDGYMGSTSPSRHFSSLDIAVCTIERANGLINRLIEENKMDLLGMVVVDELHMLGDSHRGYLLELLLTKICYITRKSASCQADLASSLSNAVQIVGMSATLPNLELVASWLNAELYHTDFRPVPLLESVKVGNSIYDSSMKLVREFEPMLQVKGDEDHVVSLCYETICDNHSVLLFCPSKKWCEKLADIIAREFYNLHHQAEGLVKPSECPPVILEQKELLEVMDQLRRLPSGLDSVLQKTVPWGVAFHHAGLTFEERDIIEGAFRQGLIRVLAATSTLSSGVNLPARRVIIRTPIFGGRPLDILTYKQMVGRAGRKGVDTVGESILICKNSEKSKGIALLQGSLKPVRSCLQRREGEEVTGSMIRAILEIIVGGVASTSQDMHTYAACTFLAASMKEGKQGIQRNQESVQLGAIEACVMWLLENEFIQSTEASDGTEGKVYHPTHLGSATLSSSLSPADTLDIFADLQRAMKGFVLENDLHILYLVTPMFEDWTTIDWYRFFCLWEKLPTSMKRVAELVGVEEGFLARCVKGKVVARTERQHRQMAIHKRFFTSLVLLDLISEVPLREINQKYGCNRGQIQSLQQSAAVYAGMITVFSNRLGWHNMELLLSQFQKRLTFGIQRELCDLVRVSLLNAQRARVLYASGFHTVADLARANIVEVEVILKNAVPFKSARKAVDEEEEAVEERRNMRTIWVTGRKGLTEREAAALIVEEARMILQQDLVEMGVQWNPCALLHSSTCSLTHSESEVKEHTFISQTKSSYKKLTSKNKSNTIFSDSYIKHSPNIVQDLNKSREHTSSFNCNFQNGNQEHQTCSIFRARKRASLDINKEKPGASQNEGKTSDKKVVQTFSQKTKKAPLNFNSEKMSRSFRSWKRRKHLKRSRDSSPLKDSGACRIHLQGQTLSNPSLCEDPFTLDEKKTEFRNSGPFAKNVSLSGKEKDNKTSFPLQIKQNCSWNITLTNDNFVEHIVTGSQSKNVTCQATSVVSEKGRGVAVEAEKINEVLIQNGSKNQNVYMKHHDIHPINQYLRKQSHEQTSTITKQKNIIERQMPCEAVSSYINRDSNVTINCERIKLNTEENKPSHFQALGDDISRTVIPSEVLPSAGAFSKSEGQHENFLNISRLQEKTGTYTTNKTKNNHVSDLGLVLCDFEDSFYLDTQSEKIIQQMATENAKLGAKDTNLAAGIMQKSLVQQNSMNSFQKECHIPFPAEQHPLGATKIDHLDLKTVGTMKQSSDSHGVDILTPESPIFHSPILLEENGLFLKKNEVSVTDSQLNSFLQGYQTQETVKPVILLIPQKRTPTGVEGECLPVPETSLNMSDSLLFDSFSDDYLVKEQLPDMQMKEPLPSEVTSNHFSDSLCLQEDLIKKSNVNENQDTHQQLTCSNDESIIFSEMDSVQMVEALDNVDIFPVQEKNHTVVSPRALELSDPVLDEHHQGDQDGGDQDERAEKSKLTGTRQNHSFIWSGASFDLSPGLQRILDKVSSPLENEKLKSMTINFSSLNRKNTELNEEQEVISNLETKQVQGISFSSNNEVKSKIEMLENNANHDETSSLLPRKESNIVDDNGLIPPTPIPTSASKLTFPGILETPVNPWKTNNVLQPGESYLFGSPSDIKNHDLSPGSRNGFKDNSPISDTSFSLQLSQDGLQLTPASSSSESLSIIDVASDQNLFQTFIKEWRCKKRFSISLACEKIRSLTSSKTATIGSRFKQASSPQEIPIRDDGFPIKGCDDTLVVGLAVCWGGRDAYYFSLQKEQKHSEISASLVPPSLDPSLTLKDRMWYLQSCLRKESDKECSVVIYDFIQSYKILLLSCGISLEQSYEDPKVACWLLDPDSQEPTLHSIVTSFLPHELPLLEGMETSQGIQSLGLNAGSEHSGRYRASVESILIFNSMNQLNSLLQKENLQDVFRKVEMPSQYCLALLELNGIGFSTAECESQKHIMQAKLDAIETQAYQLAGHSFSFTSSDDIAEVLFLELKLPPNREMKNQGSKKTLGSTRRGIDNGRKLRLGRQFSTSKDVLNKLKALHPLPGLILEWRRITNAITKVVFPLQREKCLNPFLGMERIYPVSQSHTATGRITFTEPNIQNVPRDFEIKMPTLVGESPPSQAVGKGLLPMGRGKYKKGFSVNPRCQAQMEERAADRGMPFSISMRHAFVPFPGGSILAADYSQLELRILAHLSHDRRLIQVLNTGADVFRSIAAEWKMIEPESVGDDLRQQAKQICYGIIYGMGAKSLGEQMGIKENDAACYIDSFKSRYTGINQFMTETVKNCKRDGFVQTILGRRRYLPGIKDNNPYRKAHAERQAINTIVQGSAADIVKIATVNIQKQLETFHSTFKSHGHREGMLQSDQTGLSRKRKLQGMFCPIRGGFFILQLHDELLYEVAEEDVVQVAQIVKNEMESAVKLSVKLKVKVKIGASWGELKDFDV
Regarding `Cc1cc(C)c(C#N)c(N2C[C@@H](O)C[C@H]2C(=O)N(C)c2ccc(F)c(C(F)(F)F)c2)n1` [Example 10, (2S,4S)-1-(3-Cyano-4,6-dimethylpyridin-2-yl)-N-(4-fluoro-3-(trifluoromethyl)phenyl)-4-hydroxy-N-methylpyrrolidine-2-carboxamide], the IC50 came out at 316 nM.
On the same count and under the same terms, the value for `CCN(C(=O)[C@@H]1[C@H](O)[C@H](O)CN1c1nc(C)cc(C(F)(F)F)c1C#N)c1ccc(F)c(F)c1` [Example 56, (2S,3S,4R)-1-(3-Cyano-6-methyl-4-(trifluoromethyl)pyridin-2-yl)-N-(3,4-difluorophenyl)-N-ethyl-3,4-dihydroxypyrrolidine-2-carboxamide] was 42 nM; that for `Cc1cc(C(F)(F)F)cc(N2C(=O)[C@@H](CN(C)C)C[C@@H]2C(=O)N(C)c2ccc(F)c(Cl)c2)n1` (stereo in doubt) [Example 79, (2R,4R)—N-(3-Chloro-4-fluorophenyl)-4-((dimethylamino)methyl)-N-methyl-1-(6-methyl-4-(trifluoromethyl)pyridin-2-yl)-5-oxopyrrolidine-2-carboxamide] was 90 nM.
`Cc1cc(C(F)(F)F)cc(N2C(=O)OC[C@H]2C(=O)N(C)c2ccc(Cl)cc2Cl)n1` [Example 171, (S)-N-(2,4-Dichlorophenyl)-N-methyl-3-(6-methyl-4-(trifluoromethyl)pyridin-2-yl)-2-oxooxazolidine-4-carboxamide] displayed a 50% inhibitory concentration (IC50) of 68 nM.
The same measure, in the same setting: the value for `CCN(C(=O)[C@H]1C[C@@H](N2CCNCC2)CN1c1nc(C)cc(C)c1C#N)c1cccc(C)c1` (stereo in doubt) [Example 50, (2R,4R)-1-(3-Cyano-4,6-dimethylpyridin-2-yl)-N-ethyl-4-(piperazin-1-yl)-N-(m-tolyl)-pyrrolidine-2-carboxamide] was 232 nM.
Still for that read-out and setting: the same measure for `Cc1cc(C(F)(F)F)cc(N2C(=O)OC[C@H]2C(=O)N(C)c2cccc(N)n2)n1` [Example 175, (S)—N-(6-Aminopyridin-2-yl)-N-methyl-3-(6-methyl-4-(trifluoromethyl)pyridin-2-yl)-2-oxooxazolidine-4-carboxamide]: 519 nM; for `Cc1cc(C(F)(F)F)cc(N2C(=O)N(CCNS(C)(=O)=O)C[C@H]2C(=O)N(C)c2ccc(F)c(Cl)c2)n1` [Example 187, (S)—N-(3-Chloro-4-fluorophenyl)-N-methyl-3-(6-methyl-4-(trifluoromethyl)pyridin-2-yl)-1-(2-(methylsulfonamido)ethyl)-2-oxoimidazolidine-4-carboxamide]: 22 nM; for `Cc1cc(C(F)(F)F)cc(N2C(=O)N(CCC(=O)N(C)C)C[C@H]2C(=O)N(C)c2ccc(F)c(Cl)c2)n1` [Example 190, (S)—N-(3-Chloro-4-fluorophenyl)-1-(3-(dimethylamino)-3-oxopropyl)-N-methyl-3-(6-methyl-4-(trifluoromethyl)pyridin-2-yl)-2-oxoimidazolidine-4-carboxamide]: 13 nM.
The molecule `Cc1cc(C(F)(F)F)cc(N2C(=O)N(S(C)(=O)=O)C[C@H]2C(=O)N(C)c2ccc(F)c(Cl)c2)n1` [Example 159, (S)—N-(3-Chloro-4-fluorophenyl)-N-methyl-3-(6-methyl-4-(trifluoromethyl)pyridin-2-yl)-1-(methylsulfonyl)-2-oxoimidazolidine-4-carboxamide] displayed an IC50 of 178 nM.
On the same count and under the same terms, the value for `Cc1cc(C(F)(F)F)c(C#N)c(N2C[C@@H](O)C[C@H]2C(=O)N(C)c2ccccc2)n1` [Example 8, (2S,4S)-1-(3-Cyano-6-methyl-4-(trifluoromethyl)pyridin-2-yl)-4-hydroxy-N-methyl-N-phenylpyrrolidine-2-carboxamide] was 180 nM.
For the molecule `Cc1cc(C(F)(F)F)cc(N2C(=O)N(CCN3CCOCC3)C[C@H]2C(=O)N(C)c2ccc(F)c(Cl)c2F)n1` [Example 195, (S)-N-(3-Chloro-2,4difluorophenyl)-N-methyl-3-(6-methyl-4-(trifluoromethyl)pyridin-2-yl)-1-(2-morpholinoethyl)-2-oxoimidazolidine-4-carboxamide], the IC50 turned out to be 4 nM.
In the case of `Cc1cc(C(F)(F)F)cc(N2C(=O)N(CCN3CCN(C)C(=O)C3)C[C@H]2C(=O)N(C)c2ccc(F)c(Cl)c2F)n1` [Example 210, (S)-N-(3-Chloro-2,4-difluorophenyl)-N-methyl-1-(2-(4-methyl-3-oxopiperazin-1-yl)ethyl)-3-(6-methyl-4-(trifluoromethyl)pyridin-2-yl)-2-oxoimidazolidine-4-carboxamide], the IC50 was 7 nM.
`CCN(C(=O)[C@@H]1C[C@H](N(C)[C@@H]2CCOC[C@H]2O)CN1c1cc(C(F)(F)F)cc(C)n1)c1ccc(F)c(F)c1` [Example 139, (2S,4S)—N-(3,4-Difluorophenyl)-N-ethyl-4-(((3S,4R)-3-hydroxytetrahydro-2H-pyran-4-yl)(methyl)amino)-1-(6-methyl-4-(trifluoromethyl)pyridin-2-yl)pyrrolidine-2-carboxamide] yielded a half-maximal inhibitory concentration (IC50) of 164 nM.
Same read-out and setting: the value for `Cc1cc(C(F)(F)F)cc(N2C(=O)N(CCN3CC[C@H](O)C3)C[C@H]2C(=O)N(C)c2ccc(F)c(Cl)c2)n1` [Example 196, (S)-N-(3-Chloro-4-fluorophenyl)-1-(2-((S)-3-hydroxypyrrolidin-1-yl)ethyl)-N-methyl-3-(6-methyl-4-(trifluoromethyl)pyridin-2-yl)-2-oxoimidazolidine-4-carboxamide] was 24 nM; that for `CCN(C(=O)[C@@H]1C[C@H](N2CCOC[C@@H]2CO)CN1c1nc(C)cc(C(F)(F)F)c1C#N)c1ccc(F)c(Cl)c1` [Example 152, (2S,4S)-N-(3-Chloro-4-fluorophenyl)-1-(3-cyano-6-methyl-4-(trifluoromethyl)pyridin-2-yl)-N-ethyl-4-((S)-3-(hydroxymethyl)morpholino)pyrrolidine-2-carboxamide] was 26 nM.
In the case of `Cc1cc(C(F)(F)F)cc(N2C(=O)N(CC(O)CN3CCC(F)C3)C[C@H]2C(=O)N(C)c2ccc(F)c(Cl)c2F)n1` (stereo in doubt) [Example 215, (4S)—N-(3-Chloro-2,4-difluorophenyl)-1-(3-((R)-3-fluoropyrrolidin-1-yl)-2-hydroxy-propyl)-N-methyl-3-(6-methyl-4-(trifluoromethyl)pyridin-2-yl)-2-oxoimidazolidine-4-carboxamide], the IC50 stood at 8 nM.

Staying with this test, now noted: read-out: Polθ IC50; full length N-His, C-term FLAG tagged Polθ, PicoGreen fluorescence, 12 point concentration response.
In the case of `Cc1cc(C(F)(F)F)cc(N2C(=O)[C@@H](O)C[C@H]2C(=O)N(C)c2ccc(F)c(Cl)c2)n1` [Example 74, (2S,4S)—N-(3-Chloro-4-fluorophenyl)-4-hydroxy-N-methyl-1-(6-methyl-4-(trifluoromethyl)-pyridin-2-yl)-5-oxopyrrolidine-2-carboxamide], the IC50 was 25 nM.
Regarding `Cc1cc(C(F)(F)F)cc(N2C(=O)OC[C@H]2C(=O)N(C)c2cccc(Cl)c2)n1` [Example 87, (S)-N-(3-Chlorophenyl)-N-methyl-3-(6-methyl-4-(trifluoromethyl)pyridin-2-yl)-2-oxooxazolidine-4-carboxamide], the IC50 was 15 nM.
Consider `Cc1cccc(N(C)C(=O)[C@@H]2COC(=O)N2c2cc(C(F)(F)F)cc(C)n2)c1` [Example 58, (S)—N-Methyl-3-(6-methyl-4-(trifluoromethyl)pyridin-2-yl)-2-oxo-N-(m-tolyl)oxazolidine-4-carboxamide], for which the IC50 turned out to be 7 nM.
